Assay [1] concerns OVCAR-3 cells. As to the kind of experiment: Cell cycle by EdU flow cytometry (dose, time, washout, tracing). Type of assay: cell-based, human. The note with it: 600 nM. How it is done:
Cells were plated at 100,000 cells/well in Corning 6 cm tissue culture treated plates. […] Cells were collected and fixed in 1% paraformaldehyde. Cells were incubated with Alexa488 azide dye as described by Thermo Scientific. Cells were then incubated with Fxcycle-violet and RNase. Cells were analyzed on a BD Celesta and data compiled using FloJo and GraphPad.
The OVCAR3 human ovarian carcinoma cell line was grown in RPMI-1640/1× Glutamax/1× Insulin/10% fetal bovine serum and was plated at 300,000 cells/well in Corning 6 cm tissue culture treated plates. […] Cells were treated for the indicated amount of time (24 hours or 48 hours), with 10 μM EdU added for the last hour of treatment. Cells were collected and fixed in 1% paraformaldehyde. Cells were incubated with Alexa 488 (A488) azide dye as described by Thermo Scientific. Cells were then incubated with FarRed dye and RNase. Cells were analyzed on a BD Celesta and data compiled using FloJo and GraphPad Prism (FIG. 13A-B).
The OVCAR3 human ovarian carcinoma cell line was grown in RPMI-1640/1× Glutamax/1× Insulin/10% fetal bovine serum and was plated at 300,000 cells/well in Corning 6 cm tissue culture treated plates. […] At 24 hours, the remaining plates were rinsed with media before un-treated media was added back. Cells were collected at the indicated times, with 10 μM EdU added for the last hour (FIG. 14A). Cells were collected and fixed in 1% paraformaldehyde. Cells were incubated with Pacific blue azide dye as described by Thermo Scientific. Cells were then incubated with FarRed dye and RNase. Cells were analyzed on a BD Celesta and data compiled using FloJo and GraphPad. […] By 18 hours, OVCAR-3 cells were in G2 or reentering G1. Cells appeared to remain somewhat synchronized over 48 hours.
The OVCAR3 human ovarian carcinoma cell line was grown in RPMI-1640/1× Glutamax/1× Insulin/10% fetal bovine serum and was plated at 300,000 cells/well in Corning 6 cm tissue culture treated plates. […] Cells were divided into two sets. The first set was treated for the indicated amount of time, with 10 μM EdU added for the last hour of treatment before being collected. The second set of cells were treated for the indicated amount of time and had EdU added for one hour before the timepoint. Then the media was aspirated, the cells washed, and re-treated with treatment media. The second set of cells was collected at 48 hours, allowing for tracing of the EdU positive cells. Cells were collected and fixed in 1% paraformaldehyde. Cells were incubated with Alexa 488 (A488) azide dye as described by Thermo Scientific. Cells were then incubated with FarRed dye and RNase. Cells were analyzed on a BD Celesta and data compiled using FloJo and GraphPad. […] Several “snap shots” of cells at various timepoints, followed by where the cells from S phase ended up at the end of 48 hours of treatment, were collected. […] It appears that the cells in S phase at after 6 hours of treatment are arresting in G1 (FIG. 15B). At 24 hours of treatment, little to no cells were in S phase so there were no cells to trace (FIG. 15C). Although the DMSO sample appears largely different at 48 hours, the distribution appears similar to the DMSO, EdU free cells at 48 hours. […] (FIG. 15D).
Background: In flow cytometry, cells or beads pass a laser one at a time.

In assay [2] the test system is OVCAR-3 cells. Briefly: CellTiter Glo cell proliferation assay. It is filed as cell-based, human. The note with it: Homo sapiens, OVCAR-3, 144 h; six days. How it is done:
Plates were returned to the incubator for six additional days. On day six post dosing, plates were removed and treated with CellTiter Glo reagent following manufacturer's specifications. Plates were incubated 45 minutes at room temperature and run on Biotek luminometer with 1 sec/well detection. Results were converted to Microsoft Excel and transferred to Graphpad Prism for analysis. […] These cell types are distinguished by either gained of cyclin E1 expression or activation (Kuramochi) or intrinsic amplification of cyclin E1 (OVCAR-3, COV318).
In a similar manner, OVCAR-3 cells were grown in RPMI-1640, 1× Glutamax, 10% FBS and 1×ITS at 37° C., 5% CO2. Cells were plated at 500 cells per well in white wall/clear bottom plates and incubated overnight. […] Plates returned to incubator for six additional days. On day six post dosing, plates were removed and treated with CellTiter Glo reagent following manufacturer's specifications. Plates were incubated 45 minutes at room temperature and run on Biotek luminometer with 1 sec/well detection. Results were converted to Microsoft Excel and transferred to GraphPad Prism for analysis.
Background: Cellular ATP, detected with luciferase, serves as a proxy for viable cell number.

For another assay, the system named is FUOV-1 cells. Briefly: CellTiter-Glo cell proliferation assay. It is filed as cell-based. The following applies: Homo sapiens, 144 h; 6 days; read-out: IC50 in FUOV1 cells. How it is done: The Kuramochi human ovarian carcinoma cell line was grown in RPMI-1640/1× Glutamax/10% fetal bovine serum and the FUOV-1 human ovarian carcinoma cell line was grown in DMEM/F12/1× Glutamax/10% fetal bovine serum and both were plated at 1,000 cells/well in Corning 96 well white wall/clear bottom tissue culture treated plates. […] Plates were removed from incubator at each specified timepoint and treated with CellTiter-Glo (Promega, Inc) following manufacturer specifications. Plates were then read on CLARIOstar luminometer with 1 sec/well integration. Results were converted to Microsoft Excel and transferred to GraphPad Prism for Analysis (FIG. 16A-B).

The test system of assay [3] is caspase 3/7 in H526 cells. Briefly: CaspaseGlo-3/7 activation. It is filed as cell-based, human. The following applies: for IC50: Homo sapiens. As to the method:
Plates were removed from incubator and treated with CaspaseGlo-3/7 (Promega, Inc) following manufacturer specifications. Plates were then read on a Biotech luminometer with 1 sec/well integration. Results were converted to Microsoft Excel and transferred to GraphPad Prism for Analysis (FIG. 22D).
Plates were removed from the incubator at each specified timepoint and treated with CaspaseGlo-3/7 (Promega, Inc) following manufacturer specifications. Plates were then read on Biotech luminometer with 1 sec/well integration. Results were converted to Microsoft Excel and transferred to GraphPad Prism for Analysis (FIG. 27A-C).

In another assay the test system is H526 cells. As to the kind of experiment: CellTiter Glo cell proliferation assay (single agent and chemotherapy combination). Type of assay: cell-based, human. The note with it: Homo sapiens, NCI-H526, 144 h; six days. How it is done: Plates returned to incubator for six additional days. On day six post dosing, plates were removed and treated with CellTiter Glo reagent following manufacturer's specifications. Plates incubated 45 minutes at room temperature and run on a Biotek luminometer with 1 sec/well detection. Results were converted to Microsoft Excel and transferred to GraphPad Prism for analysis.
Cells were plated at 250 cells per well in white wall/clear bottom plates and incubated overnight. […] Plates returned to the incubator for six additional days. On day six post dosing, plates were removed and treated with CellTiter Glo reagent following manufacturer's specifications. Plates incubated 45 minutes at room temperature and run on a Biotek luminometer with 1 sec/well detection. Results were converted to Microsoft Excel and transferred to GraphPad Prism for analysis.
Dose curves ranged from 300 pM to 10 μM in triplicate and treatments lasted for 6 days. Plates were removed from incubator at each specified timepoint and treated with CellTiter-Glo (Promega, Inc) following manufacturer specifications. Plates were then read on CLARIOstar luminometer with 1 sec/well integration.
Dose curves ranged from 300 pM to 10 μM in triplicate and treatments lasted for 6 days. Plates were removed from incubator at each specified timepoint and treated with CellTiter-Glo (Promega, Inc) following manufacturer specifications. Plates were then read on CLARIOstar luminometer with 1 sec/well integration. Results were converted to Microsoft Excel and transferred to GraphPad Prism for Analysis.

For `COCc1cc(C(=O)Nc2cc([C@H]3CC[C@@H](OC(=O)NC(C)C)C3)[nH]n2)n(C)n1` [PF-07104091, reference compound], in the assay with OVCAR-3 cells [1], the “G1 arrest over 48 h” value is recorded as “appears to hold cells in G1 over 48 hours”. The IC50 in the assay with OVCAR-3 cells [2] was 294 nM; in the assay on FUOV-1 cells, 80 nM; in assay [3] (NCI-H526, 48 h, 48 hours), 1250 nM; in assay [3] (NCI-H526, 72 h, 72 hours), 495 nM; with H526 cells it was 305 nM. Also, the “caspase 3/7 activation” value in assay [3] (24 hours) is listed as “no appreciable caspase 3/7 activation”.

A word on the IC50: it is the concentration that gives 50% inhibition.

(Values after US20250199015A1, “CYCLIN-DEPENDENT KINASE 2 INHIBITORS FOR MEDICAL TREATMENT” (INCYCLIX BIO, LLC, priority 2022, published 2025).)
